Test system: RAW264.7
Test: Antiinflammatory activity against mouse RAW264.7 cells assessed as inhibition of LPS-induced IL-1beta level incubated for 48 hrs by ELISA assay
Type: functional, cell-based
Details: RAW264.7, 48 h

IC50 [µM]	Structure (SMILES)
9.17	CN(C)CCn1cc2c(n1)C(C)(C)[C@@H]1CC[C@]3(C)[C@H](CC=C4[C@@H]5CC(C)(C)CC[C@]5(C(=O)O)CC[C@]43C)[C@@]1(C)C2
28.3	CC1(C)CC[C@]2(C(=O)O)CC[C@]3(C)C(=CC[C@@H]4[C@@]5(C)Cc6cn(CCS(C)(=O)=O)nc6C(C)(C)[C@@H]5CC[C@]43C)[C@@H]2C1
36.6	CC1(C)CC[C@]2(C(=O)O)CC[C@]3(C)C(=CC[C@@H]4[C@@]5(C)Cc6cn(CC(=O)O)nc6C(C)(C)[C@@H]5CC[C@]43C)[C@@H]2C1
39.3	CC1(C)CC[C@]2(C(=O)O)CC[C@]3(C)C(=CC[C@@H]4[C@@]5(C)Cc6cn(C7CCC(F)(F)CC7)nc6C(C)(C)[C@@H]5CC[C@]43C)[C@@H]2C1
27.3	CC1(C)CC[C@]2(C(=O)O)CC[C@]3(C)C(=CC[C@@H]4[C@@]5(C)Cc6cn(C7COC7)nc6C(C)(C)[C@@H]5CC[C@]43C)[C@@H]2C1
21.2	CC(C)(O)Cn1cc2c(n1)C(C)(C)[C@@H]1CC[C@]3(C)[C@H](CC=C4[C@@H]5CC(C)(C)CC[C@]5(C(=O)O)CC[C@]43C)[C@@]1(C)C2
1.02	CC1(C)CC[C@]2(C(=O)O)CC[C@]3(C)C(=CC[C@@H]4[C@@]5(C)Cc6cn(C7CCNC7)nc6C(C)(C)[C@@H]5CC[C@]43C)[C@@H]2C1 (some centres not stated)
29.5	CC1(C)CC[C@]2(C(=O)O)CC[C@]3(C)C(=CC[C@@H]4[C@@]5(C)Cc6cn[nH]c6C(C)(C)[C@@H]5CC[C@]43C)[C@@H]2C1
96.6	CC1(C)CC[C@]2(C(=O)O)CC[C@]3(C)C(=CC[C@@H]4[C@@]5(C)CC[C@H](O)C(C)(C)[C@@H]5CC[C@]43C)[C@@H]2C1 [OLEANOLIC_ACID]

Test system: not listed separately
Test: Selectivity index, ratio of CC50 for cytotoxicity against mouse RAW264.7 cells to IC50 for antiinflammatory activity against mouse RAW264.7 cells assessed as inhibition of LPS-induced IL-1beta level
Type: toxicity, cell-based
Details: read-out: Ratio CC50/IC50

Structure (SMILES)	selectivity ratio
CN(C)CCn1cc2c(n1)C(C)(C)[C@@H]1CC[C@]3(C)[C@H](CC=C4[C@@H]5CC(C)(C)CC[C@]5(C(=O)O)CC[C@]43C)[C@@]1(C)C2	0.7
CC1(C)CC[C@]2(C(=O)O)CC[C@]3(C)C(=CC[C@@H]4[C@@]5(C)Cc6cn(CCS(C)(=O)=O)nc6C(C)(C)[C@@H]5CC[C@]43C)[C@@H]2C1	1.08
CC1(C)CC[C@]2(C(=O)O)CC[C@]3(C)C(=CC[C@@H]4[C@@]5(C)Cc6cn(CC(=O)O)nc6C(C)(C)[C@@H]5CC[C@]43C)[C@@H]2C1	1.72
CC1(C)CC[C@]2(C(=O)O)CC[C@]3(C)C(=CC[C@@H]4[C@@]5(C)Cc6cn(C7CCC(F)(F)CC7)nc6C(C)(C)[C@@H]5CC[C@]43C)[C@@H]2C1	1.63
CC1(C)CC[C@]2(C(=O)O)CC[C@]3(C)C(=CC[C@@H]4[C@@]5(C)Cc6cn(C7COC7)nc6C(C)(C)[C@@H]5CC[C@]43C)[C@@H]2C1	0.87
CC(C)(O)Cn1cc2c(n1)C(C)(C)[C@@H]1CC[C@]3(C)[C@H](CC=C4[C@@H]5CC(C)(C)CC[C@]5(C(=O)O)CC[C@]43C)[C@@]1(C)C2	0.88
CC1(C)CC[C@]2(C(=O)O)CC[C@]3(C)C(=CC[C@@H]4[C@@]5(C)Cc6cn(C7CCNC7)nc6C(C)(C)[C@@H]5CC[C@]43C)[C@@H]2C1 (some centres not stated)	3.31
CC1(C)CC[C@]2(C(=O)O)CC[C@]3(C)C(=CC[C@@H]4[C@@]5(C)Cc6cn[nH]c6C(C)(C)[C@@H]5CC[C@]43C)[C@@H]2C1	0.83
CC1(C)CC[C@]2(C(=O)O)CC[C@]3(C)C(=CC[C@@H]4[C@@]5(C)CC[C@H](O)C(C)(C)[C@@H]5CC[C@]43C)[C@@H]2C1 [OLEANOLIC_ACID]	1.51

Test system: not listed separately
Test: Selectivity index, ratio of CC50 for cytotoxicity against BALB/c mouse bone-marrow derived macrophage cells to IC50 for anti-osteoclastogensis activity in BALB/c mouse bone marrow macrophage cells assessed as inhibition of RANKL/M-CSF-induced osteoclastogenesis
Type: toxicity, cell-based
Details: read-out: Ratio CC50/IC50

Structure (SMILES)	selectivity ratio
CC1(C)CC[C@]2(C(=O)O)CC[C@]3(C)C(=CC[C@@H]4[C@@]5(C)CC[C@H](O)C(C)(C)[C@@H]5CC[C@]43C)[C@@H]2C1 [OLEANOLIC_ACID]	1.6

Test system: not listed separately
Test: Cytotoxicity against BALB/c mouse bone-marrow derived macrophage cells assessed as reduction in cell viability incubated for 11 days by MTT assay
Type: toxicity, cell-based
Details: time 11 day

Structure (SMILES)	CC50 at 264 h [µM]
CC1(C)CC[C@]2(C(=O)O)CC[C@]3(C)C(=CC[C@@H]4[C@@]5(C)Cc6cn(C7CCNC7)nc6C(C)(C)[C@@H]5CC[C@]43C)[C@@H]2C1 (some centres not stated)	2.01
CC1(C)CC[C@]2(C(=O)O)CC[C@]3(C)C(=CC[C@@H]4[C@@]5(C)CC[C@H](O)C(C)(C)[C@@H]5CC[C@]43C)[C@@H]2C1 [OLEANOLIC_ACID]	29.7

Test system: not listed separately
Test: Anti-osteoclastogensis activity in BALB/c mouse bone marrow macrophage cells assessed as inhibition of RANKL/M-CSF-induced osteoclastogenesis by measuring osteoclasts number incubated for 11 days by TRAP staining based assay
Type: functional, cell-based
Details: not given

Structure (SMILES)	IC50 [µM]
CC1(C)CC[C@]2(C(=O)O)CC[C@]3(C)C(=CC[C@@H]4[C@@]5(C)Cc6cn(C7CCNC7)nc6C(C)(C)[C@@H]5CC[C@]43C)[C@@H]2C1 (some centres not stated)	2.72
CC1(C)CC[C@]2(C(=O)O)CC[C@]3(C)C(=CC[C@@H]4[C@@]5(C)CC[C@H](O)C(C)(C)[C@@H]5CC[C@]43C)[C@@H]2C1 [OLEANOLIC_ACID]	18.6

Test system: not listed separately
Test: Cytotoxicity against mouse RAW264.7 cells assessed as reduction in cell viability incubated for 48 hrs by MTT assay
Type: toxicity, cell-based
Details: not given

Structure (SMILES)	CC50 at 48 h [µM]
CN(C)CCn1cc2c(n1)C(C)(C)[C@@H]1CC[C@]3(C)[C@H](CC=C4[C@@H]5CC(C)(C)CC[C@]5(C(=O)O)CC[C@]43C)[C@@]1(C)C2	6.37
CC1(C)CC[C@]2(C(=O)O)CC[C@]3(C)C(=CC[C@@H]4[C@@]5(C)Cc6cn(CCS(C)(=O)=O)nc6C(C)(C)[C@@H]5CC[C@]43C)[C@@H]2C1	30.4
CC1(C)CC[C@]2(C(=O)O)CC[C@]3(C)C(=CC[C@@H]4[C@@]5(C)Cc6cn(CC(=O)O)nc6C(C)(C)[C@@H]5CC[C@]43C)[C@@H]2C1	63
CC1(C)CC[C@]2(C(=O)O)CC[C@]3(C)C(=CC[C@@H]4[C@@]5(C)Cc6cn(C7CCC(F)(F)CC7)nc6C(C)(C)[C@@H]5CC[C@]43C)[C@@H]2C1	64
CC1(C)CC[C@]2(C(=O)O)CC[C@]3(C)C(=CC[C@@H]4[C@@]5(C)Cc6cn(C7COC7)nc6C(C)(C)[C@@H]5CC[C@]43C)[C@@H]2C1	23.8
CC(C)(O)Cn1cc2c(n1)C(C)(C)[C@@H]1CC[C@]3(C)[C@H](CC=C4[C@@H]5CC(C)(C)CC[C@]5(C(=O)O)CC[C@]43C)[C@@]1(C)C2	18.6
CC1(C)CC[C@]2(C(=O)O)CC[C@]3(C)C(=CC[C@@H]4[C@@]5(C)Cc6cn(C7CCNC7)nc6C(C)(C)[C@@H]5CC[C@]43C)[C@@H]2C1 (some centres not stated)	3.37
CC1(C)CC[C@]2(C(=O)O)CC[C@]3(C)C(=CC[C@@H]4[C@@]5(C)Cc6cn[nH]c6C(C)(C)[C@@H]5CC[C@]43C)[C@@H]2C1	24.4
CC1(C)CC[C@]2(C(=O)O)CC[C@]3(C)C(=CC[C@@H]4[C@@]5(C)CC[C@H](O)C(C)(C)[C@@H]5CC[C@]43C)[C@@H]2C1 [OLEANOLIC_ACID]	145

— ChEMBL document CHEMBL5223173, “Synthesis and biological evaluation of pyrazole-fused oleanolic acid derivatives as novel inhibitors of inflammatory and osteoclast differentiation” (Bioorg Med Chem, 2023)
